# Test results published in US20070010671A1, “Novel quinazoline derivatives and methods of treatment related to the use thereof” (priority 2003, published 2007).
# Structures can show the parent of a compound that is named as a salt.
# Biological target: MCH receptor (Homo sapiens, UniProt Q99705)
# Test: High throughput functional screening FLIPR/FDSS6000: inhibition of MCH-evoked intracellular Ca2+ changes
# Assay type: cell-based
# Settings: antagonist activity, 50 nM of MCH, FLIPR or FDSS; read-out: IC50
# In short: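 Cells expressing constitutively active MCH receptor, loaded with 4 μM Fluo4-AM for 1 h at 37 °C, were pretreated 3 min with compound, then challenged with MCH (50 nM for antagonist testing). MCH-evoked [Ca2+]i transients followed by FLIPR or FDSS (ex 488/em 530 nm) over 290 s.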
row,IC50 [µM],Structure (SMILES)
1,0.00097,"CN(C)c1nc(N[C@H]2CC[C@@H](NC(=O)COc3ccc(F)c(F)c3)CC2)nc2ccccc12 [Example 909, 2-(3,4-Difluorophenoxy)-N-(cis-4-{[4-(dimethylamino)quinazolin-2-yl]amino}cyclohexyl)-acetamide trifluoroacetate]"

# Same assay, conditions: class by percent of control at 10^-7 M or IC50
row,Structure (SMILES),class
1,CN(C)c1nc(N[C@H]2CC[C@@H](CNC(=S)Nc3ccc(Sc4ccc([N+](=O)[O-])cc4)cc3)CC2)nc2ccccc12 [compound 741],3 (Class 3: The value of percent of control at 10^−7 M was more than 60% or the value of IC50 was more than 200 nM.)
2,"CN(C)c1nc(N[C@H]2CC[C@@H](CNC(=O)Nc3ccc(F)cc3F)CC2)nc2ccccc12 [compound 422, N-(2,4-difluorophenyl)-N′-[(cis-4-{[4-(dimethylamino)quinazolin-2-yl]amino}cyclohexyl)methyl]urea]",1 (Class 1: The value of percent of control at 10^−7 M was less than 40% or the value of IC50 was less than 50 nM.)
3,CN(C)c1nc(N[C@H]2CC[C@@H](CNC(=S)Nc3ccc(C#N)cc3)CC2)nc2ccccc12 [compound 584],3 (Class 3: The value of percent of control at 10^−7 M was more than 60% or the value of IC50 was more than 200 nM.)
4,"CN(C)c1nc(N[C@H]2CC[C@@H](CNC(=O)Nc3cccc(Cl)c3)CC2)nc2ccccc12 [compound 415, N-(3-chlorophenyl)-N′-[(cis-4-{[4-(dimethylamino)quinazolin-2-yl]amino}cyclohexyl)methyl]urea]",2 (Class 2: The value of percent of control at 10^−7 M was from 40% to 60% or the value of IC50 was from 50 nM to 200 nM.)
5,CCOC(=O)c1cccc(NC(=O)NC[C@H]2CC[C@@H](Nc3nc(N(C)C)c4ccccc4n3)CC2)c1 [compound 430],3 (Class 3: The value of percent of control at 10^−7 M was more than 60% or the value of IC50 was more than 200 nM.)
6,"CCOc1ccccc1NC(=S)N[C@H]1CC[C@@H](Nc2nc(N(C)C)c3ccccc3n2)CC1 [compound 365, N-(cis-4-{[4-(dimethylamino)quinazolin-2-yl]amino}cyclohexyl)-N′-(2-ethoxyphenyl)thiourea]",1 (Class 1: The value of percent of control at 10^−7 M was less than 40% or the value of IC50 was less than 50 nM.)
7,CCCCc1ccc(NC(=S)NC[C@H]2CC[C@@H](Nc3nc(N(C)C)c4ccccc4n3)CC2)cc1 [compound 705],3 (Class 3: The value of percent of control at 10^−7 M was more than 60% or the value of IC50 was more than 200 nM.)
8,"CN(C)c1nc(N[C@H]2CC[C@@H](NC(=S)NCc3cccc(F)c3)CC2)nc2ccccc12 [compound 308, N-(cis-4-{[4-(dimethylamino)quinazolin-2-yl]amino}cyclohexyl)-N′-(3-fluorobenzyl)thiourea]",2 (Class 2: The value of percent of control at 10^−7 M was from 40% to 60% or the value of IC50 was from 50 nM to 200 nM.)
9,CCOC(=O)CNC(=O)NC[C@H]1CC[C@@H](Nc2nc(N(C)C)c3ccccc3n2)CC1 [compound 429],3 (Class 3: The value of percent of control at 10^−7 M was more than 60% or the value of IC50 was more than 200 nM.)
10,CN(C)c1nc(N[C@H]2CC[C@@H](CNC(=O)Nc3ccccc3C#N)CC2)nc2ccccc12 [compound 760],3 (Class 3: The value of percent of control at 10^−7 M was more than 60% or the value of IC50 was more than 200 nM.)
11,"CN(C)c1nc(N[C@H]2CC[C@@H](NC(=S)NC3CCCCCCC3)CC2)nc2ccccc12 [compound 287, N-cyclooctyl-N′-(cis-4-{[4-(dimethylamino)quinazolin-2-yl]amino}cyclohexyl)thiourea]",2 (Class 2: The value of percent of control at 10^−7 M was from 40% to 60% or the value of IC50 was from 50 nM to 200 nM.)
12,"CN(C)c1nc(N[C@H]2CC[C@@H](CNC(=O)Nc3cccc(Cl)c3Cl)CC2)nc2ccccc12 [compound 425, N-(2,3-dichlorophenyl)-N′-[(cis-4-{[4-(dimethylamino)quinazolin-2-yl]amino}cyclohexyl)methyl]urea]",1 (Class 1: The value of percent of control at 10^−7 M was less than 40% or the value of IC50 was less than 50 nM.)
13,CN(C)c1nc(N[C@H]2CC[C@@H](CNC(=S)Nc3cc(Cl)c(Cl)c(Cl)c3Cl)CC2)nc2ccccc12 [compound 667],3 (Class 3: The value of percent of control at 10^−7 M was more than 60% or the value of IC50 was more than 200 nM.)
14,CN(C)c1nc(N[C@H]2CC[C@@H](NC(=S)Nc3c(Cl)c(Cl)cc(Cl)c3Cl)CC2)nc2ccccc12 [compound 291],3 (Class 3: The value of percent of control at 10^−7 M was more than 60% or the value of IC50 was more than 200 nM.)
15,CC(=O)c1ccc(NC(=O)NC[C@H]2CC[C@@H](Nc3nc(N(C)C)c4ccccc4n3)CC2)cc1 [compound 407],3 (Class 3: The value of percent of control at 10^−7 M was more than 60% or the value of IC50 was more than 200 nM.)
16,CN(C)c1nc(N[C@H]2CC[C@@H](NC(=S)Nc3ccc(Oc4ccc([N+](=O)[O-])cc4)cc3)CC2)nc2ccccc12 [compound 317],3 (Class 3: The value of percent of control at 10^−7 M was more than 60% or the value of IC50 was more than 200 nM.)

# Same assay, conditions: class by percent of control at 10^-7 M or by IC50; read-out: class
row,IC50 [µM],Structure (SMILES)
1,> 0.2,CCC[C@H]1CC[C@H](c2ccc(NC(=S)N[C@H]3CC[C@@H](Nc4nc(N(C)C)c5ccccc5n4)CC3)cc2)CC1 [compound 177]
2,< 0.05,"CN(C)c1nc(N[C@H]2CC[C@@H](NC(=O)Nc3ccccc3C(C)(C)C)CC2)nc2ccccc12 [compound 117, N-(2-tert-butylphenyl)-N′-(cis-4-{[4-(dimethylamino)quinazolin-2-yl]amino}cyclohexyl)urea]"
3,> 0.2,CCOc1ccc(NC(=S)N[C@H]2CC[C@@H](Nc3nc(N(C)C)c4ccccc4n3)CC2)cc1 [compound 172]
4,> 0.2,CC(C)c1cccc(C(C)C)c1NC(=O)N[C@H]1CC[C@@H](Nc2nc(N(C)C)c3ccccc3n2)CC1 [compound 68]
5,> 0.2,CN(C)c1nc(N[C@H]2CC[C@@H](NC(=S)Nc3cccc(C(F)(F)F)c3)CC2)nc2ccccc12 [compound 194]
6,0.05 to 0.2,CN(C)c1nc(N[C@H]2CC[C@@H](NC(=O)OCCOCc3ccccc3)CC2)nc2ccccc12 [compound 846]
7,< 0.05,"COc1cc(OC)c(NC(=O)N[C@H]2CC[C@@H](Nc3nc(N(C)C)c4ccccc4n3)CC2)cc1Cl [compound 834, N-(5-chloro-2,4-dimethoxyphenyl)-N′-(cis-4-{[4-(dimethylamino)quinazolin-2-yl]amino}cyclohexyl)urea]"
8,< 0.05,"CN(C)c1nc(N[C@H]2CC[C@@H](NC(=O)NCc3ccccc3Cl)CC2)nc2ccccc12 [compound 91, N-(2-chlorobenzyl)-N′-(cis-4-{[4-(dimethylamino)quinazolin-2-yl]amino}cyclohexyl)urea]"
9,< 0.05,"CC(NC(=O)N[C@H]1CC[C@@H](Nc2nc(N(C)C)c3ccccc3n2)CC1)c1cccc2ccccc12 (stereo partly drawn) [compound 61, N-(cis-4-{[4-(dimethylamino)quinazolin-2-yl]amino}cyclohexyl)-N′-[1-(-napthyl)ethyl]urea]"
10,< 0.05,"CN(C)c1nc(N[C@H]2CC[C@@H](NC(=O)Nc3ccc(F)cc3F)CC2)nc2ccccc12 [compound 21, N-(2,4-difluorophenyl)-N′-(cis-4-{[4-(dimethylamino)quinazolin-2-yl]amino}cyclohexyl)urea]"
11,> 0.2,CN(C)c1nc(N[C@H]2CC[C@@H](NC(=O)Nc3ccc4ccccc4c3)CC2)nc2ccccc12 [compound 112]
12,> 0.2,C=C(C)CNC(=S)N[C@H]1CC[C@@H](Nc2nc(N(C)C)c3ccccc3n2)CC1 [compound 184]

# The remaining lines, values behind:
row,Structure (SMILES),IC50 [µM]
1,CN(C)c1nc(N[C@H]2CC[C@@H](CNC(=O)OCCOCc3ccccc3)CC2)nc2ccccc12 [compound 866],> 0.2
2,CN(C)c1nc(N[C@H]2CC[C@@H](CNC(=O)OCC(C)(C)C)CC2)nc2ccccc12 [compound 867],> 0.2

# Same assay, conditions: class by percent of control at 10^−7 M or by IC50; read-out: class
row,IC50 [µM],Structure (SMILES)
1,< 0.05,"CN(C)c1nc(N[C@H]2CC[C@@H](C(=O)NCc3ccc(F)c(C(F)(F)F)c3)CC2)nc2ccccc12 [Example 1176, cis-4-{[4-(dimethylamino)quinazolin-2-yl]amino}-N-[4-fluoro-3-(trifluoromethyl)benzyl]cyclohexanecarboxamide]"
2,< 0.05,"CN(C)c1nc(N[C@H]2CC[C@@H](NC(=O)c3ccccc3)CC2)nc2cc(F)c(F)cc12 [Example 1205, N-(cis-4-{[4-(dimethylamino)-6,7-difluoroquinazolin-2-yl]amino}cyclohexyl)benzamide]"
3,0.05 to 0.2,"COc1ccc(NC(=O)NC[C@H]2CC[C@@H](Nc3nc(N(C)C)c4ccccc4n3)CC2)c(OC)c1 [Example 1019, N-(2,4-dimethoxyphenyl)-N′-[(cis-4-{[4-(dimethylamino)quinazolin-2-yl]amino}cyclohexyl)methyl]urea]"
4,< 0.05,"CN(C)c1nc(N[C@H]2CC[C@@H](C(=O)NCc3ccc(F)cc3Cl)CC2)nc2ccccc12 [Example 1182, cis-N-(2-chloro-4-fluorobenzyl)-4-{[4-(dimethylamino)quinazolin-2-yl]amino}cyclohexanecarboxamide]"
5,< 0.05,"COc1cccc(OC)c1CNC(=O)[C@H]1CC[C@@H](Nc2nc(N(C)C)c3ccccc3n2)CC1 [Example 1188, cis-N-(2,6-dimethoxybenzyl)-4-{[4-(dimethylamino)quinazolin-2-yl]amino}cyclohexanecarboxamide]"

# The next lines start with the molecule.
row,Structure (SMILES),IC50 [µM]
1,"COc1ccc(C(NC(=O)[C@H]2CC[C@@H](Nc3nc(N(C)C)c4ccccc4n3)CC2)c2ccc(OC)cc2)cc1 [Example 1192, cis-N-[bis(4-methoxyphenyl)methyl]-4-{[4-(dimethylamino)quinazolin-2-yl]amino}cyclohexanecarboxamide]",< 0.05
2,"COc1ccc(CNC(=O)[C@H]2CC[C@@H](Nc3nc(N(C)C)c4cc(F)c(F)cc4n3)CC2)cc1 [Example 994, cis-4-{[4-(dimethylamino)-6,7-difluoroquinazolin-2-yl]amino}-N-(4-methoxybenzyl)cyclohexanecarboxamide]",< 0.05
